Test results from PubChem BioAssay (NCI).
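Dose response: 5 concentrations. Exposure: 48 h. Format: 96-well plates. Endpoint: linear interpolation; highest concentration if not reached. GI50 is the concentration that inhibits growth by half. TGI marks complete inhibition of growth.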 Where a SMILES comes first, the peptide text is derived from it. Bridges are numbered along the chain shown (N, C = ends). Roman numbers before positions name the chains, in order. [ ]: non-standard residue; d: D form. The star is where a group is joined. Quinoxaline2carbonyl = O=C(c1cnc2ccccc2n1)*; NMeV = CN[CH](C(=O)O)C(C)C; NMeC = CN[CH](CS)C(=O)O

Key:
Assay in all cases: inhibition of tumour cell growth, NCI panel, 48 h
XF 498 CNS = tested on: XF 498 CNS
KM20L2 colon = tested on: KM20L2 colon
DLD-1 colon = tested on: DLD-1 colon
HOP-18 NSCLC = tested on: HOP-18 NSCLC
SNB-78 CNS = tested on: SNB-78 CNS
MDA-N = tested on: MDA-N
LXFL 529 NSCLC = tested on: LXFL 529 NSCLC
RXF-631 renal = tested on: RXF-631 renal

| Structure (SMILES) | TGI (XF 498 CNS) [µM] | TGI (KM20L2 colon) [µM] | TGI (DLD-1 colon) [µM] | TGI (HOP-18 NSCLC) [µM] | TGI (SNB-78 CNS) [µM] | TGI (MDA-N) [µM] | TGI (LXFL 529 NSCLC) [µM] | TGI (RXF-631 renal) [µM] | other results |
| --- | --- | --- | --- | --- | --- | --- | --- | --- | --- |
| COC(CN1C=C(Sc2ccccc2)CC1)OC | 66.3 | > 100 | > 100 | > 100 | > 100 | – | – | – | – |
| CC1(C)CCC[C@]2(C)[C@@H](C=O)C(C=O)=CC[C@@H]12 | – | – | – | – | – | 26.4 | – | – | – |
| C/C=C(\C)c1cc(O)c(C)c2c1Oc1cc(O)c(Cl)c(C)c1C(=O)O2 | – | 35.2 | 33.9 | – | 82.6 | – | 60 | – | – |
| c1ccc(P(=Nc2ccccc2N=P(c2ccccc2)(c2ccccc2)c2ccccc2)(c2ccccc2)c2ccccc2)cc1 | 0.543 | 10.3 | 13 | 0.844 | 19.9 | – | 12.1 | 6.64 | – |
| COc1ccc(C(Cl)=C(c2ccc(OCCN(C)C)cc2)c2ccc(OCCN(C)C)cc2)cc1 | 2.81 | 2.74 | 11.3 | – | 3.94 | – | – | 0.966 | – |
| CN(C)c1ccc(/C=C2\C=Cc3ccccc32)cc1 | – | > 100 | > 100 | > 100 | – | – | > 100 | – | – |
| Cc1ccc(S(=O)OC2C3CC4CC(C3)CC2C4)cc1 (stereo unspecified) | > 100 | > 100 | > 100 | > 100 | > 100 | – | > 100 | – | – |
| Cc1cc2c(c(C(=O)O)c1C)-c1cccc(F)c1C2=O | > 100 | > 100 | > 100 | – | > 100 | – | > 100 | > 100 | – |
| Cn1c2ccccc2n2c(=O)c3c(c(C#N)c12)CCCC3 | > 100 | > 100 | > 100 | – | > 100 | – | – | – | – |
| CN(C)CC1CCCC1=O (stereo unspecified) | 2.11 | 5.32 | 1.03 | 3.16 | 6.12 | – | 1.4 | 0.377 | – |
| CCCCCCCCCCCCCP(=O)(O)NCC(N)=O | > 100 | > 100 | > 100 | 86.1 | – | – | > 100 | > 100 | – |
| Fc1cccc(C2SCc3nc4ccccc4n32)c1F (stereo unspecified) | – | > 100 | > 100 | > 100 | > 100 | – | > 100 | 36 | – |
| O=P1(Oc2ccccc2)C(c2ccccc2)C(c2ccccc2)=NN1c1ccccc1 (stereo unspecified) | > 100 | 44.9 | 34.3 | > 100 | > 100 | – | 45.7 | > 100 | – |
| CC(C)c1c2[nH]c3ccccc3c2c(C(C)C)c2[nH]c3ccccc3c12 | > 100 | > 100 | > 100 | > 100 | > 100 | – | > 100 | > 100 | – |
| CCO/C=C1\N=C(c2ccccc2Br)OC1=O | > 100 | > 100 | > 100 | – | > 100 | – | > 100 | – | – |
| CN(C)c1ccc(N=Nc2ccncc2)cc1 | – | – | – | – | – | > 100 | – | – | – |
| CN(C)CCC(/C=C/c1ccccc1)=N\Nc1ccc(Cl)cc1Cl | – | – | 27.9 | 21.9 | 26.9 | – | 22.8 | – | – |
| CC1NC(=O)C(NC(=O)c2cnc3ccccc3n2)COC(=O)C(C(C)C)N(C)C(=O)C2CSSCC(C(=O)N(C)C(C(C)C)C(=O)OCC(NC(=O)c3cnc4ccccc4n3)C(=O)NC(C)C(=O)N2C)N(C)C1=O (stereo unspecified) (I: Quinoxaline2carbonyl-SA[NMeC][NMeV] / II: Quinoxaline2carbonyl-SA[NMeC][NMeV]; ester I:1-II:C, I:C-II:1; disulfide I:3-II:3; configuration not given here) | – | – | – | – | – | < 0.01 | – | – | – |
| Cc1cc(N(CCC#N)CCC#N)ccc1/C=C1/N=C(c2ccccc2)N(N)C1=O | > 100 | > 100 | > 100 | – | – | – | > 100 | – | – |
| CC1(C)C2CCC13CS(=O)(=O)N1O[C@]13C(=O)O2 (stereo partly specified) | – | > 100 | > 100 | > 100 | > 100 | – | > 100 | > 100 | – |
| Cc1ccc(C2=Nc3ccccc3SC(c3cccc([N+](=O)[O-])c3)C2)cc1 (stereo unspecified) | – | – | – | – | – | > 100 | – | – | – |

| Structure (SMILES) | TGI (XF 498 CNS) [µM] | TGI (KM20L2 colon) [µM] | TGI (DLD-1 colon) [µM] | TGI (HOP-18 NSCLC) [µM] | TGI (SNB-78 CNS) [µM] | TGI (MDA-N) [µM] | TGI (LXFL 529 NSCLC) [µM] | TGI (RXF-631 renal) [µM] | other results |
| --- | --- | --- | --- | --- | --- | --- | --- | --- | --- |
| COc1cc2nc(NCCCCCNC(=O)c3ccco3)nc(N)c2cc1OC | – | > 100 | – | > 100 | 89.5 | – | – | 74.1 | – |
| CSC(=S)N/N=C(\C)c1cccc(C)n1 | – | – | – | – | – | > 90 | – | – | – |
| Cn1cncc1CC1COC(=O)C1C(O)c1ccccc1 (stereo unspecified) | – | – | – | – | – | > 100 | – | – | – |
| CC1CN1c1c(C(=O)/C=C/c2ccccc2)c(-c2ccccc2)nn(C)c1=O (stereo unspecified) | – | 36.2 | 34.5 | 71.5 | 33.7 | – | 28.9 | – | – |
| C[CH2][Pb]([CH2]C)([CH2]C)[O]C(=O)c1ccc2ccccc2n1 | – | – | – | – | – | > 10 | – | – | GI50 (MDA-N): > 10 µM |
| COc1ccc(-c2cc(=O)c3c(OC)c(OC)c(OC)c(OC)c3o2)cc1 | – | – | – | – | – | > 100 | – | – | – |
| CCC1(O)C(=O)OCc2c1cc1n(c2=O)Cc2cc3cc(N)ccc3nc2-1 (stereo unspecified) | – | – | – | – | – | 0.285 | – | – | – |
| CN1COc2c(n(C)c(=O)[nH]c2=O)C1 | > 100 | > 100 | > 100 | > 100 | > 100 | – | > 100 | – | – |
| CCOC1=C2N=C(Cc3ccccc3F)N=C2C(=O)c2ccccc21 | > 100 | > 100 | > 100 | > 100 | – | – | > 100 | – | – |
| CNS(=O)(=O)NNS(=O)(=O)c1ccc(Cl)cc1 | – | > 100 | > 100 | – | – | – | – | > 100 | – |
| COc1ccc(C=O)c(NC(=O)C(C)C)c1 | 68.9 | > 100 | – | 90.6 | > 100 | – | > 100 | – | – |
| N/N=C1\CC(=O)NC(=O)N1 | – | – | – | – | – | > 100 | – | – | – |
| O=C(O)COc1c(Cl)cc(Cl)c2cccnc12 | – | – | – | – | – | > 100 | – | – | – |
| CCCCCCN(N)C(=O)CC#N | – | > 100 | > 100 | > 100 | > 100 | – | > 100 | > 100 | – |
| Cc1ccc(NC(=O)c2ccccc2C(=O)O)cc1C | – | – | – | – | – | > 100 | – | – | – |
| N#Cc1ccc(N=Cc2c([O-])ccc3ccccc23)cc1.[C-]#[O+].[C-]#[O+].[Ir] | 12 | 29.5 | 4.09 | 8.51 | – | – | 4.32 | – | GI50 (LXFL 529 NSCLC): 1.84 µM; GI50 (XF 498 CNS): 2.36 µM; GI50 (KM20L2 colon): 16 µM; GI50 (DLD-1 colon): 1.96 µM; GI50 (HOP-18 NSCLC): 2.74 µM |
| CCOC(=O)C(=O)Nc1cc(Cl)ccc1Cl | > 100 | > 100 | > 100 | > 100 | – | – | > 100 | – | – |
| CN(CC(N)=O)C(=O)N(CCCl)N=O | – | – | – | – | – | > 100 | – | – | – |
| O=C([CH-]C(=O)c1ccccc1)c1ccccc1.O=C([CH-]C(=O)c1ccccc1)c1ccccc1.[OH-].[OH-].[Ti+4] | – | > 100 | – | – | – | – | – | – | GI50 (KM20L2 colon): > 100 µM |
| O=C(NC1CCCC1=O)c1ccccc1 (stereo unspecified) | > 100 | > 100 | > 100 | – | > 100 | – | – | > 100 | – |
| C=C1CCC2[C@@H](CCC3[C@]2(C)CCC[C@]3(C)C(=O)OC)[C@@H]1CC=O (stereo partly specified) | 61.6 | 62.7 | > 100 | 86 | > 100 | – | > 100 | > 100 | GI50 (RXF-631 renal): 44.9 µM |
